From ChEMBL document CHEMBL5715937, “In vitro activity of Bcr-Abl inhibitors AMN107 and BMS-354825 against clinically relevant imatinib-resistant Abl kinase domain mutants” (Cancer Res, 2005)
Activity calls are given as the source filed them. The rule behind the calls is not given here.

Legend:
[1] = cells; details: Mus musculus, BaF3, 3 h
[2] = tested on: BaF3; assay: Induction of apoptosis in mouse BaF3 cells expressing Bcr-Abl V379l mutant at 30 to 300 nM incubated for 72 hrs by Annexin V-phycoerythrin and 7-amino-actinomycin D staining based PCA instrument analysis; type: functional, cell-based; details: dose 30-300 nM
[3] = tested on: BaF3; assay: Induction of apoptosis in mouse BaF3 cells expressing Bcr-Abl T315I mutant at 30 to 1500 nM incubated for 72 hrs by Annexin V-phycoerythrin and 7-amino-actinomycin D staining based PCA instrument analysis relative to control; type: functional, cell-based; details: dose 30-1500 nM
[4] = Inhibition of BCR-ABL M244V mutant (unknown origin) expressed in mouse BaF3 cells assessed as inhibition of cell growth incubated for 72 hrs by […] CellTiter96 viability analysis; details: BaF3, time 72 hrs, condition chronic myelogenous leukemia
[5] = cells; details: Mus musculus, BaF3, 3 h; remark: listed apart in the source

**Q.** For Cc1cn(-c2cc(NC(=O)c3ccc(C)c(Nc4nccc(-c5cccnc5)n4)c3)cc(C(F)(F)F)c2)cn1 [NILOTINIB], which IC50 [1] is on record?
**A.** The IC50 was 7 nM.

**Q.** And the Activity [2]?
**A.** The Activity was “Active”.

**Q.** What about the Activity [3] of the same compound?
**A.** Its Activity is “inactive”.

**Q.** And the IC90 [4]?
**A.** The IC90 was 56 nM.

**Q.** And the IC50 [5]?
**A.** The IC50 was 22 nM.
